# From patent publication US7893069B2, “Substituted imidazo[2,1-b]thiazole compounds and uses thereof” (Gruenenthal GmbH, priority 2006, dated 2011)
# Key:
# [1] = biological target: T1, mGluR5 receptor (pig) (Sus scrofa, UniProt I3LUI7); assay: [3H]-MPEP binding assay, pig brain homogenate; details: displacement of 5 nM [3H]-MPEP, 450 μg protein from pig brain homogenate, 60 min, room temperature; read-out: IC50 [3H]-MPEP bond mGluR5 receptor (pig)
# T1 construct: 450 μg protein from brain homogenate is incubated with 5 nM; from tissue; host or cells: pig brain halves without medulla, cerebellum and pons; homogenate, differential centrifugation
# Protocol: Substituted imidazo[2,1-b]thiazole compounds corresponding to the foregoing formula I are likewise particularly preferred, which, after 60 minutes of incubation in 450 μg protein from pig brain homogenate at a temperature between 20° C. and 25° C. in a concentration of less than 2500 nM, preferably less than 1000 nM, particularly preferably less than 700 nM, very particularly preferably less than 100 nM, even more preferably less than 70 nM, bring about a 50-percent displacement of [^3H]-2-methyl-6-(3-methoxyphenyl)-ethynylpyridine which is present in a concentration of 5 nM. The determination of the displacement of [^3H]-2-methyl-6-(3-methoxyphenyl)-ethynyl-pyridine is performed as described hereinafter in the section Pharmacological Methods, I. Method for determining the inhibition of [^3H]-MPEP-bonding in the mGluR5 receptor bonding assay.
# 1. Method for Determining the Affinity to the mGluR5 Receptor
# Pig brain homogenate is produced by homogenization (Polytron PT 3000, Kinematica AG, 10,000 rpm for 90 seconds) of pig brain halves without medulla, cerebellum and pons in buffer pH 8.0 (30 mM Hepes, Sigma, order no. H3375+1 tablet complete to 100 ml, Roche Diagnostics, order no. 1836145) in ratio 1:20 (brain weight/volume) and differential centrifugation at 900×g and 40,000×g. In each case, 450 μg protein from brain homogenate is incubated with 5 nM ^3-[H]-MPEP (Tocris, order no. R1212) (MPEP=2-methyl-6-(3-methoxyphenyl)-ethynylpyridine) in 250 μl incubation batches in 96 well microtitration plates and the compounds to be tested (10 μM in the test) in buffer (as above) at room temperature for 60 min.
# Thereafter, the batches are filtered with the help of a Brandel Cell Harvester (Brandel, TYP Robotic 9600) on unifilter plates with glass fibre filter mats (Perkin Elmer, order no. 6005177) and subsequently washed with buffer (as above) 3 times with in each case 250 μl per sample. The filter plates are subsequently dried for 60 min at 55° C. 30 μL Ultima Gold™ scintillator is subsequently added per well (Packard BioScience, order no. 6013159) and the samples are measured after 3 hours on the β-counter (Mikrobeta, Perkin Elmer). The unspecific bond is determined by addition of 10 μM MPEP (Tocris, order no. 1212).
# [2] = biological target: T2, mGluR5 receptor (human) (Homo sapiens, UniProt P41594); assay: Functional Ca2+ influx assay in CHO-hmGluR5 cells (DHPG-stimulated, FLIPR); format: cell-based; details: 10 μM DHPG, Ki=IC50/(1+AGConc./EC50)
# T2 construct: host or cells: CHO-hmGluR5 cells (purchased cell line; incubated overnight with doxycycline)
# Protocol: The data is analyzed by means of a 1-factorial ANOVA (comparison of treatment groups versus vehicle group). The significance level is set at p<0.05. All the groups have a size of N=10. The test is also described in Hogg, S. (1996) “A review of the validity and variability of the elevated plus-maze as an animal model of anxiety,” Pharmacol. Biochem. Behav. 54, 21-30, and in Rodgers, R. J., Cole, J. C. (1994) “The elevated plus-maze: pharmacology, methodology and ethology,” in Cooper, S. J., Hendrie, C. A. (eds.) Ethology and Psychopharmacology. Wiley & Sons; pp. 9-44. 5. Description of the Functional Ca^2+ Influx Assay […]
# After recording the fluorescence base line for 10 sec., 50 μl test substance solution (various test substance concentrations in HBSS buffer with 1% DMSO and 0.02% Tween 20, Sigma) is added and the fluorescence signal is measured for 6 min. 50 μl DHPG solution ((S)-3,5-dihydroxyphenylglycine, Tocris Biotrend Chemikalien GmbH, Cologne, Germany, final DHPG concentration: 10 μM) is subsequently added and the inflow of Ca^2+ is simultaneously measured for 60 sec. […] The data is analysed with Microsoft Excel and GraphPad Prism. The dose-effect curves are calculated with non-linear regression and IC50 values determined. Each data point is determined 3 times and IC50 values are averaged from a minimum of 2 independent measurements. […]
# [3] = test system: rat; assay: Formalin test in rats (phase 2, chronic pain component); format: in vivo; details: p.o., 10 mg/kg, administered 30 min before formalin
# Protocol: 2a. Formalin Test in Rats The formalin test (Dubuisson, D. and Dennis, S. G., 1977, Pain, 4, 161-174) represents a model for acute and chronic pain. A biphasic nociceptive reaction, which is recorded by observation of three clearly differentiable behavioural patterns, is induced by a single formalin injection into the dorsal side of a rear paw in freely mobile test animals. The reaction has two phases: Phase 1=Immediate reaction (duration up to 10 min; paw shaking, licking), Phase 2=Late reaction (after a rest phase; likewise, paw shaking, licking; duration up to 60 min). The 1st phase reflects a direct stimulation of the peripheral nocisensors with high spinal nociceptive input or glutamate release (acute pain phase); the 2nd phase reflects a spinal and peripheral hypersensitisation (chronic pain phase). In the investigations presented here, the chronic pain component (phase 2) was evaluated. Formalin with a volume of 50 μl and a concentration of 5% is administered subcutaneously into the dorsal side of the right rear paw of each animal. The substances to be tested are administered 30 min before the formalin injection orally (p.o), intravenously (i.v.) or intraperitoneally (i.p.). The specific changes in behavior such as lifting and shaking the paw, shifts in weight of the animal as well as biting and licking reactions are observed and registered in the period of observation from 21 to 27 min after formalin injection. The various forms of behavior are summarized in the so-called pain rate (PR), which, relative to the sub-intervals of 3 min, represents the calculation of an average nociception reaction. […] The group size is 10 animals (n=10). 2b. Formalin Test in Mice
# T1 sequence (I3LUI7 19-1212): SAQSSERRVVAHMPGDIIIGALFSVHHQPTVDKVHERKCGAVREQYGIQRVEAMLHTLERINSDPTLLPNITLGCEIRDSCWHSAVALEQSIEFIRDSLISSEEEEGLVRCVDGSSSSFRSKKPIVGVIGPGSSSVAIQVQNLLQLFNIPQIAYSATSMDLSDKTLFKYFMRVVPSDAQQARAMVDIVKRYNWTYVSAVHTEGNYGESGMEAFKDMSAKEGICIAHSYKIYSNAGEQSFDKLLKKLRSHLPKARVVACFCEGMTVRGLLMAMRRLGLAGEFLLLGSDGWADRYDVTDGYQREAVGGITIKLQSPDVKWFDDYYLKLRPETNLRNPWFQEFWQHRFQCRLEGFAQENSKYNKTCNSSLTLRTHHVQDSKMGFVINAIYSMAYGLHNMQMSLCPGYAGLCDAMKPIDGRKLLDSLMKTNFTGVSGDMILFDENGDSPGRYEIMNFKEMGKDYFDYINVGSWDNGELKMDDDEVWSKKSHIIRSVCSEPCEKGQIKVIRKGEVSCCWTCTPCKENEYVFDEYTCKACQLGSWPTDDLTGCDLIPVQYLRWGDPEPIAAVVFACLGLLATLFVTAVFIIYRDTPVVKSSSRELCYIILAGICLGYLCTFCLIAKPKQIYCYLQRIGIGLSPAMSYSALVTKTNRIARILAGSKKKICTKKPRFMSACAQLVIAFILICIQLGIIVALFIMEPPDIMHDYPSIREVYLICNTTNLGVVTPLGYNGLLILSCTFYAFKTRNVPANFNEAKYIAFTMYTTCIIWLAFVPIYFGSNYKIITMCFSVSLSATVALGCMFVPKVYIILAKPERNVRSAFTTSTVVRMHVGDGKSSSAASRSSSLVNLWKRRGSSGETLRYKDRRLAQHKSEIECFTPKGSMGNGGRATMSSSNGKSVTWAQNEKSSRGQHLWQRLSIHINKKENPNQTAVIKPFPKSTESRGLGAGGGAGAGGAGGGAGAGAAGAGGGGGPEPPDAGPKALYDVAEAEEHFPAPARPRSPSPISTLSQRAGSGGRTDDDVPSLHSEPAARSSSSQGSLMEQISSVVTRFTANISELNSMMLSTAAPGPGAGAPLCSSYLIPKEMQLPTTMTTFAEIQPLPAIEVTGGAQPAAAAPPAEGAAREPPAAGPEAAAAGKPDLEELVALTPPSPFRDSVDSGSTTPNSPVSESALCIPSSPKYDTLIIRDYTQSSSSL
# T2 sequence (P41594 21-1212): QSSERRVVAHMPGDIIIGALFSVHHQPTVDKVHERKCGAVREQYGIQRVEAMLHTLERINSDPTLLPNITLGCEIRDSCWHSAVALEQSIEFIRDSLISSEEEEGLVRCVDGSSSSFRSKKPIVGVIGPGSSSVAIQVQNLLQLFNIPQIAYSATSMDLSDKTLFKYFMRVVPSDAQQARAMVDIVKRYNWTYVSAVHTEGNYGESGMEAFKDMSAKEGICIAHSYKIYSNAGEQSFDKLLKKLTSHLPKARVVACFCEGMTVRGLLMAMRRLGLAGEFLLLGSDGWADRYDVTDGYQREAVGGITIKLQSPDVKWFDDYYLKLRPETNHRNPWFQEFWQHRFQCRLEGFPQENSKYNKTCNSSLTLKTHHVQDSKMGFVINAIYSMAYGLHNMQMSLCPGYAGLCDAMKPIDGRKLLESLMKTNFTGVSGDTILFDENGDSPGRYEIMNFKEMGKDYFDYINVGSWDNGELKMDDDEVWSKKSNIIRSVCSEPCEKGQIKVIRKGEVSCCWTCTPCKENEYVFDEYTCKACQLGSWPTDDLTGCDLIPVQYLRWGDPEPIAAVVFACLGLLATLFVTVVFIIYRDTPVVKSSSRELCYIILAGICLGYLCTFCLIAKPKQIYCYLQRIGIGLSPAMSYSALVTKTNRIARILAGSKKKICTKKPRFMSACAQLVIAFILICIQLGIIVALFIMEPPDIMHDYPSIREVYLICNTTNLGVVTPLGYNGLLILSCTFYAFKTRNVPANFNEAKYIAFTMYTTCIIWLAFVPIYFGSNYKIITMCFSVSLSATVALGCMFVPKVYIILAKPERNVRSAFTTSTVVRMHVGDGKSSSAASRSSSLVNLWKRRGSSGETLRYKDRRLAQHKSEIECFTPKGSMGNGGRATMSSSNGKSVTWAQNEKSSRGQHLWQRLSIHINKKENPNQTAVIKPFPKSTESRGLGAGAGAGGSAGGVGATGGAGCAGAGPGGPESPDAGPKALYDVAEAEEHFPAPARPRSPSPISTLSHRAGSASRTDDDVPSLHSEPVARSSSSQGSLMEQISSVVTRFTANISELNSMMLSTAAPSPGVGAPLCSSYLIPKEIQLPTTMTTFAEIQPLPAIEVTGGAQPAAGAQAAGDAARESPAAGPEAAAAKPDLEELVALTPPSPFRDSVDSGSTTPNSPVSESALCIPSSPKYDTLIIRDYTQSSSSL
IC50 [1],Ki [2],SMILES,Formalin test (rat) p.o. Reduction in the nociceptive behavior over controls at 10 mg/kg [3]
5.5 nM,0.31 nM,"Cc1cn2c(NC(C)(C)C)c(-c3ccc(C#Cc4ccccn4)s3)nc2s1 [Example 4, N-tert-butyl-2-methyl-6-(5-(pyridine-2-ylethynyl)thiophene-2-yl)imidazo[2,1-b]thiazole-5-amine]",62%
3 nM,0.26 nM,"CC(C)(C)Nc1c(-c2ccc(C#Cc3ccncc3)s2)nc2sccn12 [Example 7, N-tert-butyl-6-(5-(pyridine-4-ylethinyl)thiophene-2-yl)imidazo[2,1-b]thiazole-5-amine]",
